Data: EPA's CvTdb concentration-time database

Legend:
Rat [1] = test: concentration in liver after dosing; conditions: 6 h; dosed: Potassium Perfluorobutane Sulfonate; 20 mg/kg; oral; Male; Harlan Sprague Dawley
Rat [2] = test: concentration in brain after dosing; conditions: 0.5 h; dosed: Potassium Perfluorobutane Sulfonate; 20 mg/kg; oral; Female; Harlan Sprague Dawley
Rat [3] = test: concentration in plasma after dosing; conditions: dosed: Potassium Perfluorobutane Sulfonate, 4 mg/kg, iv, Male, F344
Rat [4] = test: concentration in plasma after dosing; conditions: dosed: Potassium Perfluorobutane Sulfonate, 4 mg/kg, iv, Male, F344; remark: listed apart in the source
Rat [5] = test: concentration in plasma after dosing; conditions: dosed: Potassium Perfluorobutane Sulfonate, 4 mg/kg, oral, Male, Harlan Sprague Dawley
rat [6] = test: concentration in plasma after dosing; conditions: dosed: benzo[a]pyrene, 100 ug/m^3, inhalation, duration: 4 hr, F344
Mouse [7] = test: concentration in plasma after dosing; conditions: 0.25 h; dosed: 2-Hydroxy-4-methoxybenzophenone; 250 mg/kg; oral; Female; B6C3F1
Mouse [8] = test: concentration in plasma after dosing; conditions: 0.25 h; dosed: 2-Hydroxy-4-methoxybenzophenone; 500 mg/kg; oral; Male; B6C3F1
Mouse [9] = test: concentration in plasma after dosing; conditions: 3 h; dosed: 2-Hydroxy-4-methoxybenzophenone; 250 mg/kg; oral; Male; B6C3F1
Mouse [10] = test: concentration in plasma after dosing; conditions: dosed: 2-Hydroxy-4-methoxybenzophenone, B6C3F1
Mouse [11] = test: concentration in plasma after dosing; conditions: 2 h; dosed: 2-Hydroxy-4-methoxybenzophenone; 500 mg/kg; oral; Male; B6C3F1
Rat [12] = test: concentration in plasma after dosing; conditions: dosed: 2-Hydroxy-4-methoxybenzophenone, 8 mg/kg, iv, Female, F344
rat [13] = test: amount in urine after dosing (umol); conditions: dosed: methanol, 100 mg/kg, iv, male, CDF(F344)/CrlBR
Rat [14] = test: concentration in brain after dosing; conditions: 12 h; dosed: Perfluorooctanoic acid; 80 mg/kg; oral; Female; Harlan Sprague Dawley
Rat [15] = test: concentration in liver after dosing; conditions: 6 h; dosed: Perfluorooctanoic acid; 80 mg/kg; oral; Female; Harlan Sprague Dawley
Rat [16] = test: concentration in brain after dosing; conditions: 3 h; dosed: Perfluorooctanoic acid; 12 mg/kg; oral; Male; Harlan Sprague Dawley
Rat [17] = test: concentration in plasma after dosing; conditions: dosed: 678-39-7, 40 mg/kg, iv, Female, Harlan Sprague-Dawley
Rat [18] = test: concentration in plasma after dosing; conditions: dosed: 678-39-7, 12 mg/kg, iv, Male, F344
Rat [19] = test: concentration in kidney after dosing; conditions: 3 h; dosed: Fluorotelomer alcohol 8+2; 24 mg/kg; oral; Male; Harlan Sprague Dawley
Rat [20] = test: concentration in plasma after dosing; conditions: 5 min; dosed: Nitrite; 40 mg/kg; oral; Female; F344
Rat [21] = test: concentration in plasma after dosing; conditions: dosed: Nitrite, 20 mg/kg, iv, Male, F344
Rat [22] = test: concentration in plasma after dosing; conditions: dosed: Nitrite, 80 mg/kg, oral, Female, F344
Rat [23] = test: concentration in plasma after dosing; conditions: 5 min; dosed: Nitrite; 40 mg/kg; oral; Female; F344; remark: listed apart in the source
Rat [24] = test: concentration in plasma after dosing; conditions: 2 min; dosed: Nitrite; 40 mg/kg; oral; Female; F344
Rat [25] = test: concentration in plasma after dosing; conditions: 5 min; dosed: Nitrite; 40 mg/kg; oral; Female; Harlan Sprague-Dawley
Rat [26] = test: concentration in plasma after dosing; conditions: dosed: Nitrite, 80 mg/kg, oral, Female, F344; remark: listed apart in the source

O=S(=O)([O-])C(F)(F)C(F)(F)C(F)(F)C(F)(F)F.[K+] [Potassium Perfluorobutane Sulfonate]
concentration in liver (Rat [1]): 43800 ng/g
concentration in brain (Rat [2]): 511 ng/g
concentration in plasma (Rat [3]; 5 min): 29400 ng/mL
concentration in plasma (Rat [3]; 3 h): 10200 ng/mL
concentration in plasma (Rat [4]; 5 min): 27500 ng/mL
concentration in plasma (Rat [4]; 3 h): 429 ng/mL
concentration in plasma (Rat [5]; 0.75 h): 13400 ng/mL
concentration in plasma (Rat [5]; 12 h): 4960 ng/mL

c1ccc2c(c1)cc1ccc3cccc4ccc2c1c34 [benzo[a]pyrene]
concentration in plasma (rat [6]; 0.05 h, female): 10 ng/mL
concentration in plasma (rat [6]; 0.05 h, male): 14.9 ng/mL
concentration in plasma (rat [6]; 1 h, female): 23 ng/mL
concentration in plasma (rat [6]; 1 h, male): 18 ng/mL
concentration in plasma (rat [6]; 2 h, female): 11 ng/mL
concentration in plasma (rat [6]; 2 h, male): 12 ng/mL
concentration in plasma (rat [6]; 4 h, female): 1.07 ng/mL
concentration in plasma (rat [6]; 4 h, male): 2 ng/mL

COc1ccc(C(=O)c2ccccc2)c(O)c1 [2-Hydroxy-4-methoxybenzophenone]
concentration in plasma (Mouse [7]): 266 ng/mL
concentration in plasma (Mouse [8]): 395 ng/mL
concentration in plasma (Mouse [9]): 37.2 ng/mL
concentration in plasma (Mouse [10]; 2.5 min, 100 mg/kg, oral, Female): 6.58 ng/mL
concentration in plasma (Mouse [10]; 2.5 min, 100 mg/kg, oral, Male): 13.4 ng/mL
concentration in plasma (Mouse [10]; 2.5 min, 250 mg/kg, oral, Female): 22 ng/mL
concentration in plasma (Mouse [10]; 2.5 min, 250 mg/kg, oral, Male): 15.7 ng/mL
concentration in plasma (Mouse [10]; 10 min, 50 mg/kg, iv, Female): 9660 ng/mL
concentration in plasma (Mouse [10]; 10 min, 50 mg/kg, iv, Male): 11500 ng/mL
concentration in plasma (Mouse [10]; 10 min, 100 mg/kg, oral, Female): 57.3 ng/mL
concentration in plasma (Mouse [10]; 10 min, 100 mg/kg, oral, Male): 41.5 ng/mL
concentration in plasma (Mouse [10]; 10 min, 250 mg/kg, oral, Female): 165 ng/mL
concentration in plasma (Mouse [10]; 10 min, 250 mg/kg, oral, Male): 69.5 ng/mL
concentration in plasma (Mouse [10]; 10 min, 500 mg/kg, oral, Female): 526 ng/mL
concentration in plasma (Mouse [10]; 10 min, 500 mg/kg, oral, Male): 176 ng/mL
concentration in plasma (Mouse [10]; 0.25 h, 50 mg/kg, iv, Female): 4570 ng/mL
concentration in plasma (Mouse [10]; 0.25 h, 50 mg/kg, iv, Male): 5620 ng/mL
concentration in plasma (Mouse [10]; 0.25 h, 100 mg/kg, oral, Female): 103 ng/mL
concentration in plasma (Mouse [10]; 0.25 h, 100 mg/kg, oral, Male): 62.2 ng/mL
concentration in plasma (Mouse [10]; 0.25 h, 250 mg/kg, oral, Female): 260 ng/mL
concentration in plasma (Mouse [10]; 0.25 h, 250 mg/kg, oral, Male): 519 ng/mL
concentration in plasma (Mouse [10]; 0.25 h, 500 mg/kg, oral, Female): 2950 ng/mL
concentration in plasma (Mouse [10]; 0.25 h, 500 mg/kg, oral, Male): 238 ng/mL
concentration in plasma (Mouse [10]; 2 h, 50 mg/kg, iv, Female): 259 ng/mL
concentration in plasma (Mouse [10]; 2 h, 50 mg/kg, iv, Male): 279 ng/mL
concentration in plasma (Mouse [10]; 2 h, 100 mg/kg, oral, Female): 20.1 ng/mL
concentration in plasma (Mouse [10]; 2 h, 100 mg/kg, oral, Male): 36.5 ng/mL
concentration in plasma (Mouse [10]; 2 h, 250 mg/kg, oral, Female): 45.8 ng/mL
concentration in plasma (Mouse [10]; 2 h, 250 mg/kg, oral, Male): 54.8 ng/mL
concentration in plasma (Mouse [10]; 2 h, 500 mg/kg, oral, Female): 11500 ng/mL
concentration in plasma (Mouse [10]; 2 h, 500 mg/kg, oral, Male): 73.1 ng/mL
concentration in plasma (Mouse [10]; 3 h, 50 mg/kg, iv, Female): 193 ng/mL
concentration in plasma (Mouse [10]; 3 h, 50 mg/kg, iv, Male): 235 ng/mL
concentration in plasma (Mouse [10]; 3 h, 100 mg/kg, oral, Female): 11.8 ng/mL
concentration in plasma (Mouse [10]; 3 h, 100 mg/kg, oral, Male): 19.3 ng/mL
concentration in plasma (Mouse [10]; 3 h, 250 mg/kg, oral, Female): 264 ng/mL
concentration in plasma (Mouse [10]; 3 h, 250 mg/kg, oral, Male): 41.9 ng/mL
concentration in plasma (Mouse [11]): 95.6 ng/mL
concentration in plasma (Rat [12]; 10 min): 2560 ng/mL
concentration in plasma (Rat [12]; 2 h): 111 ng/mL

CO [methanol]
amount in urine (rat [13]; 0.9988 h): 1.09
amount in urine (rat [13]; 2.972 h): 5.07
amount in urine (rat [13]; 5.961 h): 7.79
amount in urine (rat [13]; 9.961 h): 11.5
amount in urine (rat [13]; 11.92 h): 11.7
amount in urine (rat [13]; 14.89 h): 11.7

O=C(O)C(F)(F)C(F)(F)C(F)(F)C(F)(F)C(F)(F)C(F)(F)C(F)(F)F [Perfluorooctanoic acid]
concentration in brain (Rat [14]): 1000 ng/g
concentration in liver (Rat [15]): 160000 ng/g
concentration in brain (Rat [16]): 913 ng/g
concentration in plasma (Rat [17]; 1 h): 2280 ng/mL
concentration in plasma (Rat [17]; 24 h): 58.8 ng/mL
concentration in plasma (Rat [18]; 0.25 h): 102 ng/mL
concentration in plasma (Rat [18]; 24 h): 607 ng/mL
concentration in kidney (Rat [19]): 272 ng/g

O=N[O-] [Nitrite]
concentration in plasma (Rat [20]): 9500 ng/mL
concentration in plasma (Rat [21]; 2 min): 9000 ng/mL
concentration in plasma (Rat [21]; 0.75 h): 4400 ng/mL
concentration in plasma (Rat [22]; 5 min): 6900 ng/mL
concentration in plasma (Rat [22]; 8 h): 1800 ng/mL
concentration in plasma (Rat [23]): 8500 ng/mL
concentration in plasma (Rat [24]): 7300 ng/mL
concentration in plasma (Rat [25]): 4100 ng/mL
concentration in plasma (Rat [26]; 1 h): 11200 ng/mL
concentration in plasma (Rat [26]; 2 h): 12200 ng/mL
